PubChem BioAssay (NCI)
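Where inhibition never reached the appropriate level, the endpoint shown equals the highest concentration tested. Otherwise, values were interpolated linearly from a five-concentration, 48-hour dose response in 96-well plates. GI50: concentration for 50% inhibition of growth. Definition used: TGI = concentration required for complete inhibition of growth.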

Columns and labels:
Experiment in all cases: NCI-60 cell line screen, 48 h
OVCAR-5 ovarian = tested on: OVCAR-5 ovarian
UO-31 renal = tested on: UO-31 renal
U251 CNS = tested on: U251 CNS
OVCAR-8 ovarian = tested on: OVCAR-8 ovarian
SK-OV-3 ovarian = tested on: SK-OV-3 ovarian
HOP-92 NSCLC = tested on: HOP-92 NSCLC
HT29 colon = tested on: HT29 colon
HCC-2998 colon = tested on: HCC-2998 colon
NCI-H522 lung = tested on: NCI-H522 lung
A498 renal = tested on: A498 renal

| SMILES | TGI (OVCAR-5 ovarian) | TGI (UO-31 renal) | TGI (U251 CNS) | TGI (OVCAR-8 ovarian) | TGI (SK-OV-3 ovarian) | TGI (HOP-92 NSCLC) | TGI (HT29 colon) | TGI (HCC-2998 colon) | GI50 (OVCAR-5 ovarian) | GI50 (UO-31 renal) | GI50 (OVCAR-8 ovarian) | GI50 (SK-OV-3 ovarian) | GI50 (NCI-H522 lung) | TGI (NCI-H522 lung) | GI50 (A498 renal) | TGI (A498 renal) | GI50 (U251 CNS) | GI50 (HOP-92 NSCLC) | GI50 (HT29 colon) | GI50 (HCC-2998 colon) |
| --- | --- | --- | --- | --- | --- | --- | --- | --- | --- | --- | --- | --- | --- | --- | --- | --- | --- | --- | --- | --- |
| CCOC(=O)CN(Cn1cncn1)Cn1cncn1 | > 100 µM | > 100 µM | 33.7 µM | 58.8 µM | > 100 µM | > 100 µM | > 100 µM | > 100 µM |  |  |  |  |  |  |  |  |  |  |  |  |
| COc1ccc2c(c1OC)-c1c(c3ccc([N+](=O)[O-])cc3c(=O)n1CCCBr)C2=O | > 100 µM | > 100 µM |  | > 100 µM | > 100 µM |  |  |  | > 100 µM | 35.3 µM | > 100 µM | > 100 µM | 27.6 µM | > 100 µM | > 100 µM | > 100 µM |  |  |  |  |
| O=[N+]([O-])c1nccn1CC(O)CN1CCCCC1 (stereo not given) | > 100 µM | > 100 µM | > 100 µM | > 100 µM | > 100 µM | > 100 µM | > 100 µM | > 100 µM |  |  |  |  |  | > 100 µM |  | > 100 µM |  |  |  |  |
| CNNC(=N\S(=O)(=O)c1cc(C)c(Cl)cc1SCc1ccccc1)/N=C/c1ccc([N+](=O)[O-])s1 | > 100 µM | > 100 µM | > 100 µM | > 100 µM | > 100 µM | > 83.8 µM | > 100 µM |  | > 100 µM | > 100 µM | > 100 µM | > 100 µM | > 100 µM | > 100 µM |  |  | > 100 µM | 10.9 µM | 27.4 µM | 1.29 µM |
| [O-]c1ccccc1C=Nc1ccc2c(c1)CCC2.[O-]c1ccccc1C=Nc1ccc2c(c1)CCC2.[O]=[U+2]=[O] | > 100 µM | > 100 µM |  | > 100 µM | > 100 µM |  | > 100 µM | > 100 µM | > 100 µM | 31.2 µM | 59.3 µM | > 100 µM | > 100 µM | > 100 µM | > 100 µM | > 100 µM |  |  | > 100 µM | 57.1 µM |
| COC(=O)C1C(=O)CC2CCCCC21 (stereo not given) |  | > 100 µM | > 100 µM |  | > 100 µM |  |  | > 100 µM |  |  |  |  |  | > 100 µM |  | > 100 µM |  |  |  |  |
| O=C(Nc1ccc(-n2ccc3c(NC(=O)c4ccccc4)ncnc32)cc1)c1cccc(C(F)(F)F)c1 | 31.7 µM | 21.7 µM | 13.7 µM | 29.2 µM | 29.4 µM | 26 µM | 15.7 µM | 27 µM | 6.18 µM | 3.42 µM | 1.16 µM | 4.12 µM | 1.87 µM | 20.6 µM | 3.51 µM | 23.2 µM | 0.146 µM | 7.51 µM | 0.457 µM | 4.96 µM |
| C=C/C(C)=C/C[C@]1(C)[C@H](C)[C@@H](OC(=O)CCC)[C@H](O)[C@@]23C(=C[C@H](OC)C[C@@H]12)[C@@H](OC(=O)CCC)O[C@H]3OC(C)=O | 2.54 µM | 0.586 µM | 2.98 µM | 2.42 µM | 0.806 µM | 1.13 µM | 1.42 µM | 0.71 µM | 0.576 µM | 0.212 µM | 0.447 µM | 0.266 µM | 0.239 µM | 0.741 µM | 0.223 µM | 0.645 µM | 1.32 µM | 0.303 µM | 0.343 µM | 0.238 µM |
| Cc1ccc(Oc2ccccc2N)cc1 | > 100 µM | 44.9 µM | 22.1 µM | > 100 µM | > 100 µM | > 100 µM | > 100 µM | 34.2 µM |  |  |  |  |  |  |  | > 100 µM |  |  |  |  |
| CN(C)c1nc(=NCc2ccco2)ss1 | > 55.6 µM | 50.1 µM | 67.5 µM | 62.4 µM | > 87 µM |  | 20.4 µM | > 79.1 µM |  |  |  |  |  | 3.11 µM |  | > 100 µM |  |  |  |  |
| O=c1c2cc(-c3ccccc3)sc2ncn1Cc1ccc(Cl)c(Cl)c1 | > 100 µM | > 100 µM | 38.6 µM | > 100 µM | 58 µM | 40.5 µM | > 100 µM |  | 5.46 µM | 31.8 µM | 18.6 µM | 19.4 µM | 6.43 µM | 53.1 µM | 19.4 µM | 50.3 µM | 15.5 µM | 16.2 µM | 67.7 µM |  |
| CCC(C)Oc1nc2c(c(=O)n(C)c(=O)n2C)n1C (stereo not given) | > 100 µM | > 100 µM | > 100 µM | > 100 µM | > 100 µM | > 100 µM | > 100 µM |  | > 100 µM | > 100 µM | > 100 µM | > 100 µM |  |  |  |  | > 100 µM | > 100 µM | > 100 µM |  |
| COc1ccc(OC(C(=O)O)C(C)C)c2c1CCCC2=O (stereo not given) | > 100 µM | > 100 µM | > 100 µM | > 100 µM | > 100 µM |  | > 100 µM | > 100 µM |  |  |  |  |  | > 100 µM |  | > 100 µM |  |  |  |  |
| O=C(O)/C=C\C(=O)Nc1ccccn1 | > 100 µM | > 100 µM | > 100 µM | > 100 µM | > 100 µM | > 100 µM | > 100 µM |  |  |  |  |  |  | > 100 µM |  | > 100 µM |  |  |  |  |
| CCOC(=O)c1c(C)n(Cc2ccc(Cl)cc2Cl)c2c1cc1oc(=O)c(=O)n3cnc2c13 |  | 31.8 µM | 27.9 µM | 25.8 µM | 38.3 µM | 27.2 µM | 37.8 µM |  |  | 16.1 µM | 7.68 µM | 23.5 µM | 16.4 µM | 32.9 µM | 20.6 µM | 36.1 µM | 14.7 µM | 13.9 µM | 11 µM |  |
| CNc1ccc2ncccc2c1[N+](=O)[O-] | > 100 µM | > 100 µM |  | > 100 µM |  | > 100 µM | > 100 µM | > 100 µM |  |  |  |  |  |  |  | > 100 µM |  |  |  |  |
| CCCCCN(CCCCC)CC(O)c1cc(Cl)ccc1OC (stereo not given) | 23.8 µM | 15.5 µM | 25.5 µM | 25.7 µM | 29.5 µM |  | 12 µM | 17.8 µM | 10.4 µM | 3.37 µM | 11.4 µM | 12.8 µM | 1.98 µM | 15.2 µM | 11.6 µM | 29.3 µM | 10.7 µM |  | 0.683 µM | 5.72 µM |
| COc1ccc(-c2cc(C(=O)Nc3cc(C(F)(F)F)cc(C(F)(F)F)c3)c3ccccc3n2)cc1 | > 100 µM | > 100 µM | 15.5 µM | 38.9 µM |  |  | 36.1 µM | 29.7 µM |  |  |  |  |  |  |  | 40 µM |  |  |  |  |
